Measurements: patent US20030044399A1, “Method of treatment” (SmithKline Beecham Corporation, priority 1998, published 2003)
Like-named read-outs stand apart in the source and are kept apart here.

How the values were obtained:
Cruzain = Cruzain (Trypanosoma cruzi, UniProt P25779); assay: Cysteine protease inhibition, progress curve method, cruzain; assay type: biochemical; settings: 4 uM Ac-Lys-Glu-Lys-Leu-Arg-AMC, 100 mM Na acetate pH 5.5, 5 mM cysteine; read-out: Cruzain Ki
In short: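 Kinetic constants from AMC-release progress curves over 20–30 min at ambient temperature in 100 mM Na acetate pH 5.5, 5 mM cysteine, 2% DMSO; enzyme added last to inhibitor plus substrate. Substrates: 10 uM Cbz-Phe-Arg-AMC (Leishmania, Schistosoma), 10 uM Cbz-Leu-Arg-AMC (falcipain), 4 uM Ac-Lys-Glu-Lys-Leu-Arg-AMC (cruzain). Ki,app from linear curves; time-dependent inhibition as kobs/[I].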

Falcipain 2 = Falcipain 2 (Plasmodium falciparum, UniProt Q8I6U4); assay: Cysteine protease inhibition, progress curve method, falcipain; assay type: biochemical; settings: 10 uM Cbz-Leu-Arg-AMC, 100 mM Na acetate pH 5.5, 5 mM cysteine
Chain of Falcipain 2 (Q8I6U4 244-484): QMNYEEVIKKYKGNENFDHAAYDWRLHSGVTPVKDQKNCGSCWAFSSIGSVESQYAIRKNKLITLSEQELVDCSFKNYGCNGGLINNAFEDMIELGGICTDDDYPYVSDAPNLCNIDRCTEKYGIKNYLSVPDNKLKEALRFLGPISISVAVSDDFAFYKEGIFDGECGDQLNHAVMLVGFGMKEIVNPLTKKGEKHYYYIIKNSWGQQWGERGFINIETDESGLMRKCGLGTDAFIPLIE
Method: Standard assay conditions for the determination of kinetic constants used 10 uM fluorogenic peptide substrate, Cbz-Phe-Arg-AMC for the cysteine proteases from Leishmania spp and Schistosoma Mansoni, Cbz-Leu-Arg-AMC for the cysteine proteases from Plasmodium falciparum and Trypanosoma brucei rhodesiensi, and Ac-Lys-Glu-Lys-Leu-Arg-AMC (4 uM final substrate concentration) for the cysteine protease from Trypoanosoma cruzi, and were determined in 100 mM Na acetate at pH 5.5 containing 5 mM cysteine. Stock substrate solutions were prepared at concentrations of […] in DMSO with 10 uM (4 uM for Ac-Lys-Glu-Lys-Leu-Arg-AMC) final substrate concentration in the assays. The final DMSO concentration was 2% and the final volume was 100 uL. All assays were conducted at ambient temperature. Product progress curves were generated over 20 to 30 minutes following formation of AMC product.
Potential inhibitors were evaluated using the progress curve method. Assays were carried out in the presence of variable concentrations of test compound. Reactions were initiated by addition of enzyme to buffered solutions of inhibitor and substrate. Data analysis was conducted according to one of two procedures depending on the appearance of the progress curves in the presence of inhibitors. For those compounds whose progress curves were linear, apparent inhibition constants (Ki,app) were calculated according to equation 1 (Brandt et al., Biochemitsry, 1989, 28, 140):
v=VmA/[Ka(1+I/Ki,app)+A] (1)
Where v is the velocity of the reaction with maximal velocity Vm, A is the concentration of substrate with Michaelis constant of Ka, and I is the concentration of inhibitor.
[AMC]=vsst+(v0−vss)[1−exp (−kobst)]/kobs (2)
Where [AMC] is the concentration of product formed over time t, v0 is the initial reaction velocity and vss is the final steady state rate. Values for kobs were then analyzed as a linear function of inhibitor concentration to generate an apparent second order rate constant (kobs/inhibitor concentration or kobs/[I]) describing the time-dependent inhibition. A complete discussion of this kinetic treatment has been fully described (Morrison et al., Adv. Enzymol. Relat. Areas Mol. Biol., 1988, 61, 201).
Exemplary inhibition data for the compounds used in the present method collected in accordance with the above-described procedure are listed in Table I.

Rhodazain = Rhodazain (Trypanosoma brucei rhodesiense, UniProt Q95PM0); assay: Cysteine protease inhibition, progress curve method, rhodazain; assay type: biochemical, Trypanosoma brucei rhodesiensi; settings: 10 uM Cbz-Leu-Arg-AMC, 100 mM Na acetate pH 5.5, 5 mM cysteine
Chain of Rhodazain (Q95PM0 entry or part of it): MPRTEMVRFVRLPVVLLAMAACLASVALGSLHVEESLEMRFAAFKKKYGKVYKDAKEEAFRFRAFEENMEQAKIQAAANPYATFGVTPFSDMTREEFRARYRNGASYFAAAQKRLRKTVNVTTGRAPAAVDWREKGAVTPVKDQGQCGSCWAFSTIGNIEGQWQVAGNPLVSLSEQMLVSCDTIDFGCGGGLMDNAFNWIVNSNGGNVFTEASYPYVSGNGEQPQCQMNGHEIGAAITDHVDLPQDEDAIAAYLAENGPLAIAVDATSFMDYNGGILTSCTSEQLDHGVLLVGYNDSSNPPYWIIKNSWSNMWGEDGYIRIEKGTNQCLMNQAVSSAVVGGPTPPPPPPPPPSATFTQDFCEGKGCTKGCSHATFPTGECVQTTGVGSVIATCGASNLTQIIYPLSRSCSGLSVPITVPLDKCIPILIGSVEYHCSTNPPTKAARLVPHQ

Chain of Cruzain (P25779 123-337): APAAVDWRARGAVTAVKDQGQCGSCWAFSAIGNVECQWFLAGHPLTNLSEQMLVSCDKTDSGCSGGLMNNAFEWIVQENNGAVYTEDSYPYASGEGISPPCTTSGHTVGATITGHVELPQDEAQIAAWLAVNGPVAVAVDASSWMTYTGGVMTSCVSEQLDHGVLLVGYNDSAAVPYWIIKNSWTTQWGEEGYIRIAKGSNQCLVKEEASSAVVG

COc1ccc2oc(C(=O)N[C@H](CC(C)C)C(=O)N[C@@H]3CCCN(S(=O)(=O)c4ncccc4C)CC3=O)cc2c1 (stereo in doubt) [Example 162, 5-Methoxy-benzofuran-2-carboxylic acid {(S)-3-methyl-1-[1-(3-methyl-pyridine-2-sulfonyl)-3-oxo-azepan-4-ylcarbamoyl]-butyl}amide]
Ki (Cruzain): 2.7 nM | Ki (Falcipain 2): 6.1 nM | Ki (Rhodazain; Rhodazain Ki (nM)): 2.5 nM

CC(C)C[C@@H](NC(=O)c1cc2ccccc2o1)C(=O)NC1CCCN(S(=O)(=O)c2ccccn2)CC1=O (single isomer, unassigned) [Example 21]
Ki (Cruzain): 3.8 nM | Ki (Falcipain 2): 10 nM | Ki (Rhodazain; Rhodazain Ki (nM)): 3.2 nM

Cc1csc(C(=O)NC(CC(C)C)C(=O)N[C@H]2CCCN(C(=O)Nc3ccccc3F)CC2=O)c1 (stereo partly drawn) [Example 220, 4-Methyl-2-carboxylic acid {(S)-1-[-(2-fluoro-phenylcarbamoyl)-3-oxo-azepan-4-ylcarbamoyl]-3-methyl-butyl}-amide]
Ki (Cruzain): 8.7 nM | Ki (Falcipain 2): 3.9 nM | Ki (Rhodazain; Rhodazain Ki (nM)): 4.2 nM

CC(C)C[C@@H](NC(=O)c1ccc2ccccc2c1)C(=O)N[C@@H]1CCCN(S(=O)(=O)c2ccccn2)CC1=O (single isomer, unassigned) [Example 155]
Ki (Cruzain): 4.1 nM | Ki (Falcipain 2): 6.1 nM | Ki (Rhodazain; Rhodazain Ki (nM)): 3 nM

CC(C)C[C@@H](NC(=O)c1ccc2c(c1)OCO2)C(=O)N[C@@H]1CCCN(S(=O)(=O)c2ccccn2)CC1=O (stereo in doubt) [Example 59, Benzo[1,3]dioxole-5-carboxylic acid {(S)-3-methyl-1-[3-oxo-1-(pyridine-2-sulfonyl)-azepan-4-ylcarbamoyl]-butyl}amide]
Ki (Cruzain): 3.4 nM | Ki (Falcipain 2): 3.4 nM | Ki (Rhodazain; Rhodazain Ki (nM)): 2.4 nM

COc1cccc2cc(C(=O)N[C@@H](CC(C)C)C(=O)N[C@H]3CCCN(S(=O)(=O)c4ccccc4F)CC3=O)oc12 [Example 93, 7-Methoxy-benzofuran-2-carboxylic acid-{(S)-1-[1-(2-fluoro-benzenesulfonyl)-3-oxo-azepan-4-ylcarbamoyl]-3-methyl-butyl}-amide]
Ki (Cruzain): 11 nM | Ki (Falcipain 2): 7 nM | Ki (Rhodazain; Rhodazain Ki (nM)): 11 nM

Benzofblthiophene-2-carboxylic acid {(S)-3-methyl-1-[3-oxo-1-(1-oxy-pyridine-2-sulfonyl)-azepan-4-ylcarbamoyl]-butyl}amide [Example 51]
Ki (Cruzain): 6.4 nM | Ki (Falcipain 2): 5.1 nM | Ki (Rhodazain; read-out: Rhodazain Ki): 3 nM

CC(C)C[C@@H](NC(=O)c1ccnc2ccccc12)C(=O)N[C@@H]1CCCN(S(=O)(=O)c2ccccn2)CC1=O (single isomer, unassigned) [Example 153]
Ki (Cruzain): 2.4 nM | Ki (Falcipain 2): 4.5 nM | Ki (Rhodazain; Rhodazain Ki (nM)): 1.6 nM

CC(C)CC(NC(=O)c1ccc2c(c1)OCCCO2)C(=O)N[C@@H]1CCCN(S(=O)(=O)c2cccc[n+]2[O-])CC1=O (single isomer, unassigned) [Example 78]
Ki (Cruzain): 4.4 nM | Ki (Falcipain 2): 7.1 nM | Ki (Rhodazain; Rhodazain Ki (nM)): 4.6 nM

CC(C)C[C@H](NC(=O)c1cc2sccc2s1)C(=O)N[C@H]1CCCN(C(=O)Nc2ccccc2F)CC1=O [Example 218, Thieno[3,2-b]thiophene-2-carboxylic acid {(S)-1-[1-(2-fluoro-phenylcarbamoyl)-3-oxo-azepan-4-ylcarbamoyl]-3-methyl-butyl}-amide]
Ki (Cruzain): 5.4 nM | Ki (Falcipain 2): 3.1 nM | Ki (Rhodazain; Rhodazain Ki (nM)): 2.3 nM

COc1ccc2oc(C(=O)N[C@H](CC(C)C)C(=O)N[C@@H]3CCCN(S(=O)(=O)c4ncccc4C)CC3=O)cc2c1 (single isomer, unassigned) [Example 171]
Ki (Cruzain): 2.5 nM | Ki (Falcipain 2): 4.9 nM | Ki (Rhodazain; Rhodazain Ki (nM)): 3.2 nM

CC(C)CC(NC(=O)c1nc(-c2ccccc2)oc1C(F)(F)F)C(=O)NC1CCCN(S(=O)(=O)c2ccccn2)CC1=O (single isomer, unassigned) [Example 105]
Ki (Cruzain): 13 nM | Ki (Falcipain 2): 84 nM | Ki (Rhodazain; Rhodazain Ki (nM)): 5.3 nM

COc1ccc2oc(C(=O)N[C@@H](CC(C)C)C(=O)N[C@H]3C[C@H](C)CN(S(=O)(=O)c4ccccn4)CC3=O)cc2c1 [Example 198, 5-Methoxy-benzofuran-2-carboxylic acid {(S)-3-methyl-1-[6-methyl-3-oxo-1-(pyridine-2-sulfonyll)-azepan-4-ylcarbamoyl]-butyl}-amide]
Ki (Cruzain): 1.9 nM | Ki (Falcipain 2): 3.6 nM | Ki (Rhodazain; Rhodazain Ki (nM)): 1.6 nM

COc1cccc2cc(C(=O)N[C@H](CC(C)C)C(=O)N[C@H]3CCCN(S(=O)(=O)c4ccccn4)CC3=O)oc12 [Example 164]
Ki (Cruzain): 4.2 nM | Ki (Falcipain 2): 2.2 nM | Ki (Rhodazain; Rhodazain Ki (nM)): 5.1 nM

CC(C)C[C@@H](NC(=O)c1cc2ccccc2o1)C(=O)N[C@@H]1CCCN(S(=O)(=O)c2cccc[n+]2[O-])CC1=O [Example 45]
Ki (Cruzain): 4.1 nM | Ki (Falcipain 2): 5.7 nM | Ki (Rhodazain; Rhodazain Ki (nM)): 2.8 nM

CC(C)CC(NC(=O)c1ccc2c(c1)OCO2)C(=O)N[C@@H]1CCCN(S(=O)(=O)c2cccc[n+]2[O-])CC1=O (single isomer, unassigned) [Example 76]
Ki (Cruzain): 14 nM | Ki (Falcipain 2): 7.8 nM | Ki (Rhodazain; Rhodazain Ki (nM)): 5.4 nM

CC(C)C[C@H](NC(=O)c1cc2ccccc2o1)C(=O)N[C@H]1CCCN(S(=O)(=O)c2cn(C)cn2)CC1=O [Example 42, Benzofuran-2-carboxylic acid {(S)-3-methyl-1-[1-(1-methyl-1H-imidazole-4-sulfonyl)-3-oxo-azepan-4-ylcarbamoyl]-butyl}amide]
Ki (Cruzain): 2 nM | Ki (Falcipain 2): 5.3 nM | Ki (Rhodazain; Rhodazain Ki (nM)): 1.8 nM

CC(C)C[C@H](NC(=O)c1cc2ccccc2s1)C(=O)N[C@H]1C[C@H](C)CN(S(=O)(=O)c2ccccn2)CC1=O [Example 197, Benzo[b]thiophene-2-carboxylic acid {(S)-3-methyl-1-[6-methyl-3-oxo-1-(pyridine-2-sulfonyl)-azepan-4-ylcarbamoyl]-butyl}-amide]
Ki (Cruzain): 3.1 nM | Ki (Falcipain 2): 4.1 nM | Ki (Rhodazain; Rhodazain Ki (nM)): 2.3 nM

CC(C)C[C@@H](NC(=O)c1ccc2ncccc2c1)C(=O)N[C@@H]1CCCN(S(=O)(=O)c2ccccn2)CC1=O (single isomer, unassigned) [Example 152]
Ki (Cruzain): 2 nM | Ki (Falcipain 2): 3.1 nM | Ki (Rhodazain; Rhodazain Ki (nM)): 1.6 nM

COc1ccc2oc(C(=O)N[C@@H](CC(C)C)C(=O)N[C@H]3CCCN(C(=O)Nc4ccccc4F)CC3=O)cc2c1 [Example 221, 5-Methoxy-benzofuran-2-carboxylic acid {(S)-1-[1-(2-fluoro-phenylcarbamoyl)-3-oxo-azepan-4-ylcarbamoyl]-3-methyl-butyl}-amide]
Ki (Cruzain): 3 nM | Ki (Falcipain 2): 2 nM | Ki (Rhodazain; Rhodazain Ki (nM)): 1.2 nM

CC(C)C[C@H](NC(=O)c1cc2ccccc2s1)C(=O)N[C@H]1CCCN(S(=O)(=O)c2nccs2)CC1=O [Example 127, Benzo[b]thiophene-2-carboxylic acid {(S)-3-methyl-1-[3-oxo-1-(thiazole-2-sulfonyl)-azepan-4-ylcarbamoyl]-butyl}amide]
Ki (Cruzain): 2.8 nM | Ki (Falcipain 2): 8.1 nM | Ki (Rhodazain; Rhodazain Ki (nM)): 4.7 nM

COc1cc2cc(C(=O)N[C@H](CC(C)C)C(=O)N[C@H]3CCCN(S(=O)(=O)c4ccccn4)CC3=O)sc2cc1OC (single isomer, unassigned) [Example 165]
Ki (Cruzain): 5.5 nM | Ki (Falcipain 2): 2.5 nM | Ki (Rhodazain; Rhodazain Ki (nM)): 2.1 nM

CC(C)CC(NC(=O)c1cc2ccccc2o1)C(=O)N[C@H]1CCCN(S(=O)(=O)c2nccn2C)CC1=O (stereo partly drawn) [Example 40]
Ki (Cruzain): 2.3 nM | Ki (Falcipain 2): 4.5 nM | Ki (Rhodazain; Rhodazain Ki (nM)): 2 nM

Cc1c(C(=O)N[C@@H](CC(C)C)C(=O)N[C@H]2C[C@H](C)CN(S(=O)(=O)c3ccccn3)CC2=O)oc2ccccc12 [Example 199, 3-Methyl-benzofuran-2-carboxylic acid {(S)-3-methyl-1-[6-methyl-3-oxo-1-(pyridine-2-sulfonyl)-azepan-4-ylcarbamoyl]-butyl}-amide]
Ki (Cruzain): 2.3 nM | Ki (Falcipain 2): 5.6 nM | Ki (Rhodazain; Rhodazain Ki (nM)): 2 nM

COc1cccc2cc(C(=O)N[C@@H](CC(C)C)C(=O)N[C@@H]3CCCN(S(=O)(=O)c4cccs4)CC3=O)oc12 [Example 144, 7-Methoxy-benzofuran-2-carboxylic acid-{(S)-3-methyl-1-[3-oxo-1-(thiophene-2-sulfonyl)-azepan-4-ylcarbamoyl]-butyl}-amide]
Ki (Cruzain): 5.5 nM | Ki (Falcipain 2): 6.2 nM | Ki (Rhodazain; Rhodazain Ki (nM)): 8.6 nM
